# Test results: patent US10568868B2, “Methods and compositions for treating metabolic reprogramming disorders” (THE JOHNS HOPKINS UNIVERSITY, priority 2015, dated 2020)
# What was measured:
# [1] = Pharmacokinetics of DON in swine plasma and CSF after i.v. infusion of DON, compound 14b or compound 47; format: in vivo; conditions: for CSF-to-plasma ratio of DON: 60 min post-administration; for amount of DON delivered to the CSF relative to DON: CSF at 60 min post-dose
# Experimental: Compound: Compound 47 was dissolved in a sterile saline containing 5% ethanol and 5% Tween 80 on the date of administration.
# Swine: Swine studies were conducted under a protocol approved by the Johns Hopkins Animal Care and Use Committee. Adult, female Gottingen×Yucutan miniature swine (Massachusetts General Hospital, MA) were housed in Johns Hopkins University facilities accredited by the Association for Assessment and Accreditation of Laboratory Animal Care International in compliance with the Animal Welfare Act, Animal Welfare Regulations, and the Public Health Service Policy on the Humane Care and Use of Laboratory Animals. Animals were maintained on a 14-h light and 10-h dark schedule, provided ad libitum water and a commercial miniswine diet (Teklad, Madison, Wis.) with environmental enrichment (fruit/vegetables) twice daily.
# [2] = In vitro plasma stability, human plasma; format: in vitro ADME
# [3] = In vitro plasma stability, pig plasma; format: in vitro ADME
# [4] = In vitro plasma stability, dog plasma; format: in vitro ADME
# [5] = In vitro plasma stability, monkey plasma; format: in vitro ADME, monkeys
# [6] = In vitro plasma stability, mouse plasma; format: in vitro ADME, mice
# [7] = In vitro liver microsomal stability, pig microsomes
# [8] = In vitro liver microsomal stability, human microsomes
# CD4+ T cells = assay: Extracellular flux analysis (ECAR, OCR) of CD4+ T cells stimulated with anti-CD3/CD28; format: cell-based, 5C.C7 mice; conditions: 2-DG 10 mM; Metformin 50 mM; DON 30 μM; after anti-CD3/CD28
# Experimental: Extracellular flux analysis: Cells were initially plated to XF assay medium, modified DMEM (Seahorse Bioscience) containing 25 mM glucose, 2 mM L-glutamine, and 1 mM sodium pyruvate, and incubated in a non-CO2 incubator at 37° C. for 30 minutes. OCR and ECAR were measured at 37° C. in a XF96 Extracellular Flux Analyzer (Seahorse Bioscience) using manufacturer recommended protocols. After baseline measurements, OCR and ECAR were measured after sequentially adding anti-CD3/CD28 and metabolic reprogramming agents into each well to the indicated final concentrations using the included ports on the XF96 cartridges. All data were collected using the XF Reader software from Seahorse Bioscience.
# OCR is an indicator of mitochondrial OXPHOS, and ECAR is predominantly a measure of lactic acid formed during glycolytic energy metabolism, and thus reflects overall glycolytic flux. Primary, naïve 5C.C7 CD4^+ T cells were incubated with pigeon cytochrome c (PCC) peptide for 48 hrs and then expanded and rested in IL-2 for an additional 5 days to generate previously activated CD4^+ cells. After measuring the baseline bioenergetics of these resting CD4^+ cells, cells were re-stimulated with anti-CD3/CD28 (FIG. 9A and FIG. 9B). […] Upon reaching the peak of glycolytic flux, metabolic reprogramming agents were administered to the cells. 2-DG is a glucose analog that inhibits hexokinase, the first enzyme in the glycolytic pathway (Rowe et al. (2013) Nature Medicine 19(4):488-493). […] Metformin is a commonly used oral hypoglycemic that activates AMPK, inhibits mitochondrial respiratory complex I and promotes fatty acid oxidation (Buzzai et al. (2007) Cancer Research 67(14):6745-6752; El-Mir et al. (2000) The Journal of Biological Chemistry 275(1):223-228).
# CD4+ and CD8+ T cells [9] = assay: T cell proliferation (eFluor 670 dilution) of splenocytes stimulated with anti-CD3; format: cell-based, C57BL/6 mice; conditions: anti-CD3, 72 h; DON 5 μM; 2-DG 0.6 mM; Metformin 1 mM
# CD4+ and CD8+ T cells [10] = assay: IFN-γ secretion of anti-CD3 stimulated splenocytes (ELISA); format: cell-based, C57BL/6 mice; conditions: anti-CD3, 24 h; DON 5 μM; 2-DG 0.6 mM; Metformin 1 mM
# glutaminase = assay: Glutaminase activity analysis of activated CD4+ T cells (radiolabeled assay); format: cell-based, mice; conditions: anti-CD3/CD28, 24 hrs; DON 5 μM
# Experimental: Glutaminase activity analysis: Glutaminase activity measurement was adapted from previously described protocols (Thomas et al. (2013) Biochemical and Biophysical Research Communications 438(2):243-248). Briefly, T cells were lysed in ice-cold potassium phosphate buffer (45 mM, pH 8.2) containing protease inhibitors (Roche, Complete Protease Inhibitor Cocktail, 1 tablet in 50 ml) and incubated with 3H-glutamine (0.03 μM, 0.91 μCi) for 90 min at room temperature. The reactions were carried out in 50 μl reaction volumes in a 96-well microplate. At the end of the reaction period, the assay was terminated upon the addition of imidazole buffer (20 mM, pH 7). 96-well spin columns packed with strong anion ion-exchange resin (Bio-Rad, AG® 1-X2 Resin, 200-400 mesh, chloride form) were used to separate the substrate and the reaction product. Unreacted ^3H-glutamine was removed by washing with imidazole buffer. ^3H-glutamate, the reaction product, was then eluted with 0.1 N HCl and analyzed for radioactivity using Perkin Elmer's TopCount instrument in conjunction with their 96-well LumaPlates. […]
# [11] = system: antigen-specific CD4+ T cells; format: in vivo, mice
# [12] = system: antigen-specific CD8+ T cells; format: in vivo, mice; conditions: DON added to 2DG+Metformin therapy
# [13] = system: Balb/c to C57BL/6 skin allograft; assay: Murine skin transplantation (Balb/c to C57BL/6); format: in vivo, mice
# [14] = system: Balb/c to C57BL/6 heart allograft; assay: Murine heterotopic heart transplantation (Balb/c to C57BL/6); parameters: species or system mice; conditions: mouse, in vivo
# Experimental: Murine heterotopic heart transplantation: BALB/c mice served as heart donors and C57BL/6 mice serve as allograft recipients. Either abdominal or cervical heterotopic heart transplantation was performed according to previously published methods (Corry et al. (1973) Transplantation 16(4):343-350; Oberhube et al. (2014) J Vis Exp 92:e50753). Functionality of the transplanted heart was monitored daily by palpation. Clinical rejection was defined by cessation of palpable heartbeats and confirmed by autopsy. Loss of graft function within 48 hrs of transplantation was considered as a technical failure, and animals in which this occurred were omitted from the analysis.
# Finally, this metabolic reprogramming therapy with at least three metabolic reprogramming agents was employed in a Balb/c to C57BL/6 heart transplantation, which is a vascularized solid organ transplantation model. Strikingly, when recipient mice were treated with metabolic reprogramming therapy with at least three metabolic reprogramming agents, the grafted hearts continued beating for more than 100 days post-transplantation without rejection (FIG. 15F).
# [15] = system: mouse model of Acute Respiratory Distress Syndrome (ARDS); assay: Mouse model of acute respiratory distress syndrome (ARDS); format: in vivo, mice; conditions: treated on day 2 & 4
# Source text: FIG. 17A, FIG. 17B, and FIG. 17C show targeting glutamine in a mouse model of acute respiratory distress syndrome (ARDS). Mice were challenged with Ips (FIG. 17A) to induce ARDS and treated with DON on day 2 & 4.
# [16] = system: mouse model of Pulmonary Fibrosis; assay: Mouse model of pulmonary fibrosis (intratracheal bleomycin); parameters: species or system mice; conditions: in vivo
# Experimental: Mice were treated with intratracheal bleomycin to induce fibrosis.
# cerebral malaria = assay: Cerebral malaria in mice; format: in vivo; conditions: treated on day 5 post infection and on day 6, every other day
# Experimental: FIG. 19A and FIG. 19B show the targeting of glutamine metabolism to cure Cerebral malaria. Mice were treated on day 5 post infection and on day 6 (12 hours before subsequent death) with DON every other day.
# [17] = system: arthritis in a mouse model; assay: Arthritis mouse model; conditions: in vivo
# [18] = system: pneumonitis in a mouse model; assay: Pneumonitis mouse model; conditions: in vivo
structure (smiles),measurement,setting,value
"CC(C)OC(=O)[C@H](CCC(=O)C=[N+]=[N-])NC(=O)O[C@H](C)OC(=O)C(C)(C)C (single isomer, unassigned) [Compound 14b]",CSF-to-plasma ratio of DON,[1],increased CSF-to-plasma ratios
same,amount of DON delivered to the CSF relative to DON,[1],substantially higher amounts of DON
same,plasma stability,[2],stable
same,plasma stability,[3],stable
same,plasma stability,[4],stable
same,plasma stability,[5],stable
same,plasma stability,[6],rapidly metabolized
CC(=O)N[C@@H](Cc1c[nH]c2ccccc12)C(=O)N[C@@H](CCC(=O)C=[N+]=[N-])C(=O)OC(C)C [Compound 60a],liver microsomal stability,[7],moderate-high stability
same,liver microsomal stability,[8],moderate-high stability
CC(C)OC(=O)[C@H](CCC(=O)C=[N+]=[N-])NC(=O)OC(OC(=O)C(C)(C)C)c1ccccc1 (some centres unmarked) [Compound 47],CSF-to-plasma ratio of DON,[1],increased CSF-to-plasma ratios
same,amount of DON delivered to the CSF relative to DON,[1],substantially higher amounts of DON
"O=CC[C@@H](O)[C@H](O)[C@H](O)CO [Compound 2-DG, 2-deoxy-D-glucose]",ECAR (glycolytic flux) of activated T cells,CD4+ T cells,sharp decrease
same,OCR (OXPHOS) of activated T cells,CD4+ T cells,insignificant increase
same,T cell proliferation,CD4+ and CD8+ T cells [9],inhibited T cell proliferation and cytokine production in a dose-dependent manner
same,IFN-γ (cytokine) production,CD4+ and CD8+ T cells [10],inhibited T cell proliferation and cytokine production in a dose-dependent manner
CN(C)C(=N)N=C(N)N [metformin],ECAR (glycolytic flux) of activated T cells,CD4+ T cells,increase
same,OCR (OXPHOS) of activated T cells,CD4+ T cells,marked suppression
same,T cell proliferation,CD4+ and CD8+ T cells [9],inhibited T cell proliferation and cytokine production in a dose-dependent manner
same,IFN-γ (cytokine) production,CD4+ and CD8+ T cells [10],inhibited T cell proliferation and cytokine production in a dose-dependent manner
"[N-]=[N+]=CC(=O)CC[C@H](N)C(=O)O [DON, 6-Diazo-5-oxo-L-norleucine]",ECAR (glycolytic flux) of activated T cells,CD4+ T cells,did not have an obvious impact
same,OCR (OXPHOS) of activated T cells,CD4+ T cells,did not have an obvious impact
same,T cell proliferation,CD4+ and CD8+ T cells [9],decreased
same,IFN-γ (cytokine) production,CD4+ and CD8+ T cells [10],decreased
same,glutaminase activity of activated T cells,glutaminase,significantly abrogated
same,CD4+ T cell effector function,[11]; DON added to 2DG+Metformin therapy,very potent inhibition
same,frequency of Foxp3+ CD4+ T cells (Tregs) in vivo,[11]; relative frequency,increased the relative frequency of regulatory T cells
same,CD8+ T cell effector function,[12],very potent inhibition
same,skin allograft rejection / graft survival,[13]; fully MHC-mismatched,prevents transplant rejection and prolongs skin graft survival
same,skin graft median survival time (MST),"[13]; treatment from day 0 until rejection, no treatment 11 days",22 days
same,heart transplant rejection,[14],able to prevent heart transplant rejection
same,lung damage,[15],less lung damage
same,recovery (weight gain),[15],more rapid recovery (weight gain)
same,lung damage,[16],markedly decreased lung damage
same,recruitment/generation of lung fibrocytes,[16],decrease in the recruitment/generation of lung fibrocytes
same,death (survival),cerebral malaria,prevent death at such a late stage of disease
same,arthritis,[17],treated arthritis
same,pneumonitis,[18],treated pneumonitis
CC(C)C[C@H](N)C(=O)N[C@@H](CCC(=O)C=[N+]=[N-])C(=O)OC(C)C [Compound 9],liver microsomal stability,[7],moderate-high stability
same,liver microsomal stability,[8],moderate-high stability
CC(C)OC(=O)[C@H](CCC(=O)C=[N+]=[N-])NC(=O)[C@@H](N)Cc1c[nH]c2ccccc12 [Compound 38a],liver microsomal stability,[7],moderate-high stability
same,liver microsomal stability,[8],moderate-high stability
